# Experimental data reported in patent publication US20240390464A1, “Treatment of Adults With Overweight or Obesity With or Without Weight-Related Comorbidities” (Carmot Therapeutics Inc., priority 2023, published 2024).
# “Also recorded” adds a separate entry of the source. Numbered stars: 1 amine (or outer) side, 2 acyl side, 3 side chain; on linkers, the order of the positions; unused ones are H or OH. Square brackets hold non-standard residues; d marks the D form. Side chains are listed from the residue outwards. Peptide text beside a SMILES is read from it. * marks the point of attachment. Isobutyryl(2-(3-CN-5-F-Ph)) = CC(C)(C(=O)*)c1cc(F)cc(C#N)c1; C20 diacid = O=C(O)CCCCCCCCCCCCCCCCCCC(=O)*; γGlu = O=C(O)[C@H](CCC(=O)[*:2])N[*:1]; AEEA = NCCOCCOCC(=O)O; Aib = CC(C)(N)C(=O)O; βAla = NCCC(=O)O
# What was measured:
# [1] = Phase 1 MD Cohorts 11 and 12: safety, tolerability, disposition; type: in vivo, human
# Method: The primary objective of this study is to determine the safety and tolerability of CT-388 in participants with and without type 2 diabetes mellitus (T2DM) when administered once weekly over 12 consecutive weeks for Cohorts 11 and 14 with titrated dosing (and additionally, up to 24 weeks for Cohorts 12 and 13).
# The cohorts in the MD QW study are as follows. • Cohort 11: Once weekly dose administered SC in the abdomen across 12 consecutive weeks with CT-388 or matched placebo doses of 5.0 mg administered for the first 3 weeks and then titrated to 8.0 mg for the duration of the treatment period. If a participant(s) experiences moderate to severe tolerability issues after the third dose of 5 mg, the same 5 mg dose may be continued for up to an additional 2 weeks, i.e., up-titration to 8 mg may be attempted after the fourth or fifth 5 mg dose. If participant(s) still unable to tolerate 8 mg by Day 36, then that participant(s) may continue at 5 mg for the remaining duration of the treatment period. • Cohorts 12 and 13: Once weekly dose administered SC in the abdomen titrated across 12 consecutive weeks with CT-388 or matched placebo doses of: • 5.0 mg at Day 1 and Day 8 • 8.0 mg at Day 15 and Day 22 • 12.0 mg (or 8.0 mg based on tolerability) at Day 29 and Day 36 • 17.0 mg (or 12.0 mg based on tolerability) at Day 43 and Day 50 • 22.0 mg (or 12.0 mg or 17.0 mg based on tolerability) at Day 57. • If at 22 mg on Day 57, continue that dose for the duration of the treatment period. • If at 12 mg or 17 mg on Day 57, titration to the corresponding next higher dose level may be attempted on a weekly basis based on the individual's tolerability (e.g., if on Day 57, 12 mg dose was administered and tolerated, on Day 64, dose of 17 mg may be attempted). • If not able to tolerate, continue at the previously tolerated dose level until the following week (e.g., to Day 71), at which point another attempt can be made to the next higher dose level. • Attempts to the next higher dose level can continue to be made until Day 78. The dose level achieved at Day 78 should be maintained for an additional 12 weeks of weekly dosing in the extension period, resulting in a cumulative of 24 weeks of total doses for participants in Cohorts 12 and 13. At any time during the extension period, if the maintenance dose is not tolerated, then that dose may be either lowered by one corresponding dose level (e.g., if at 22 mg, decrease to 17 mg; if at 17 mg decrease to 12 mg), and/or the dosing may be withheld for up to 2 weeks. Following this temporary dose adjustment/withholding period, attempt to titrate back up to the previous (higher) dose level should be made. […]
# [2] = chronic toxicology, repeat dosing 26 weeks; type: in vivo; conditions: rats
# Source text: (§1) Thus, CT-388 can be a potent drug that induces significant weight loss and helps achieve optimal glycemic control, with acceptable tolerability, in overweight or obese adults with or without T2DM or other weight-related comorbidities. CT-388 can potentially be used as a non-invasive alternative to bariatric surgery for weight management.
# [3] = chronic toxicology, repeat dosing 39 weeks; type: in vivo; conditions: monkeys
# Source text: as §1
# [4] = Cohort 12, planned target 22 mg
compound,measurement,setting,value
CC[C@H](C)[C@H](NC(=O)[C@H](CC(C)C)NC(=O)[C@H](Cc1c[nH]c2ccccc12)NC(=O)[C@H](CCC(N)=O)NC(=O)[C@@H](NC(=O)[C@H](Cc1ccccc1)NC(=O)[C@H](C)NC(=O)[C@H](CCCCNC(=O)COCCOCCNC(=O)COCCOCCNC(=O)CC[C@H](NC(=O)CCCCCCCCCCCCCCCCCCC(=O)O)C(=O)O)NC(=O)[C@H](CCC(N)=O)NC(=O)[C@H](C)NC(=O)[C@@H](NC(=O)[C@H](CCCCN)NC(=O)[C@H](CC(=O)O)NC(=O)[C@H](CC(C)C)NC(=O)C(C)(C)NC(=O)[C@@H](NC(=O)[C@H](CO)NC(=O)[C@H](Cc1ccc(O)cc1)NC(=O)[C@H](CC(=O)O)NC(=O)[C@H](CO)NC(=O)[C@@H](NC(=O)[C@H](Cc1ccccc1)NC(=O)[C@@H](NC(=O)CNC(=O)[C@H](CCC(=O)O)NC(=O)CCNC(=O)C(C)(C)c1cc(F)cc(C#N)c1)[C@@H](C)O)[C@@H](C)O)[C@@H](C)CC)[C@@H](C)CC)C(C)C)C(=O)N[C@@H](C)C(=O)NCC(=O)NCC(=O)N1CCC[C@H]1C(=O)N[C@@H](CO)C(=O)N[C@@H](CO)C(=O)NCC(=O)N[C@@H](C)C(=O)N1CCC[C@H]1C(=O)N1CCC[C@H]1C(=O)N1CCC[C@H]1C(=O)N[C@@H](CO)C(N)=O [CT-388] ({Isobutyryl(2-(3-CN-5-F-Ph))-βAla}-EGTFTSDYSI[Aib]LDKIAQK([AEEA-AEEA-γGlu-C20 diacid])AFVQWLIAGGPSSGAPPPS-NH2),SAEs or severe treatment related GI-related AEs,"[1]; CT-388 participants, up to 24 weeks",No SAEs or severe treatment related GI-related AEs; also recorded: No SAEs or severe treatment related GI-related TEAE
same,patients dosed per planned path and completed treatment on 22 mg,[1]; [4],75%
same,patients with dose down-titration who completed treatment on 12 mg,[1]; [4],25%
same,safety and tolerability,"[1]; up to 24 weeks of treatment, up to 22 mg SC QW",generally safe and well-tolerated
same,tolerated dosing exceeds the pharmacologically active dose,[2]; 26-weeks,100 fold
same,"tolerability, chronic toxicology",[2]; repeat dosing over 26-weeks,well tolerated
same,tolerated dosing exceeds the pharmacologically active dose,[3]; 39-weeks,100 fold
same,"tolerability, chronic toxicology",[3]; repeat dosing over 39-weeks,well tolerated
